Entries after “also recorded” stand apart in the source; their conditions may differ.
Key:
AhR [1] = test: AhR luciferase reporter in mouse hepatoma cells H1L6.1c3; type: cell-based; design: dose or concentration left out as unconfirmed; details: higher RLU at 2 h lasting until 24h
Experimental: The ability of 1ME3CA was comparatively assessed here in mouse hepatoma cells (H1L6.1c3), kindly provided by Allison K. Ehrlich (Meyer Hall, University of California, Davis, United States), containing the stably integrated AhR xenobiotic responsive element driven by a firefly luciferase reporter plasmid, pGudLuc6.167. Cells were plated in MEMA (Gibco), supplemented with 10% fetal serum bovine and 1% penicillin-streptomycin solution, in 24-well plate and stimulated with different concentrations of either 3-IAld or 1ME3CA. Luciferase activity, calculated as relative light units (RLU) per microgram of protein and expressed as fold induction, was carried at 2 or 24 hours of exposure.

AhR [2] = target: T1, AhR (Homo sapiens, UniProt P35869); test: AhR-dependent genes in vitro in cell lines (data not shown); type: cell-based; design: host or cells: unnamed cell lines; details: preliminary
T1 sequence (P35869 11-848): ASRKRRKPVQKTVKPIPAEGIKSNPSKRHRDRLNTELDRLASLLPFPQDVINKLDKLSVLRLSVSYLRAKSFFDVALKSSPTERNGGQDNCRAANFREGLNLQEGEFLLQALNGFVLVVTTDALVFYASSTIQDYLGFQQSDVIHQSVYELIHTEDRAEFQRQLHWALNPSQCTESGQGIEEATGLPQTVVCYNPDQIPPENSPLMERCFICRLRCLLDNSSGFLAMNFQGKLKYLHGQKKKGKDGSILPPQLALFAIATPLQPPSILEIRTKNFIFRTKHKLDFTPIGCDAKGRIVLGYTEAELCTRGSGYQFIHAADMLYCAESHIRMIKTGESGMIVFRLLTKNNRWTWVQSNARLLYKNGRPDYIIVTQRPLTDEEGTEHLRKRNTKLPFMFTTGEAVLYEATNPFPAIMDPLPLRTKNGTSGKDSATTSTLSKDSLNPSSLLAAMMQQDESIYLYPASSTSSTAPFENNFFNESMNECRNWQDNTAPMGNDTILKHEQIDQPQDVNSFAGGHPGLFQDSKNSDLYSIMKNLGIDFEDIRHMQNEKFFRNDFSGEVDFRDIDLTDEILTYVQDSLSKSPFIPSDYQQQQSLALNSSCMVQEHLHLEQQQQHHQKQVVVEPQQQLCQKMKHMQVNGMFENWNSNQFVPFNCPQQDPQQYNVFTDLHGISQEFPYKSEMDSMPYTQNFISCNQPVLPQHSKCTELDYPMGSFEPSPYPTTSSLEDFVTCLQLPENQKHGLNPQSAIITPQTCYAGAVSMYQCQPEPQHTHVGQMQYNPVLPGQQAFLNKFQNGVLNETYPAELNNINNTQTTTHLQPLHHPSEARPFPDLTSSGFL
Experimental: Specifically, the oxidated form of 3-IAld (indole-3-formic acid), and methylated forms of indole-3-formic acid, were detected following administration of labelled 3-IAld. For example, 1-Methylindole-3-carboxylic acid was detected with the same kinetics of indole-3-formic acid, with peak levels at 30 min (FIGS. 13C and 13D). Few studies have been performed assessing the biological activities of methylindoles and methoxyindoles as aryl hydrocarbon receptor (AhR) activators.

[3] = system: DSS+anti-CTLA-4-induced colitis; test: DSS+anti-CTLA-4-induced colitis in 8-10 wk-old Il10−/− mice; type: in vivo
Experimental: Il10^−/− Mice received DSS (1%) in their drinking water and 100 μg anti-CTLA-4 monoclonal antibody intraperitoneally at days 0, 4 and 8 following the DSS administration. 3-IAld-Eudragit was given (18 mg/kg 3-IAld) intragastrically every other day throughout the experiment, starting 2 days before treatment. Animals were monitored daily for body weight and inflammatory pathology in the colon until 14 days after DSS administration.

[4] = system: pathology after chronic treatment with anti-CTLA-4 monoclonal antibody; test: chronic anti-CTLA-4 treatment in 16 wk-old Il10−/− mice, without DSS; type: in vivo
Description: Animals were monitored daily for body weight, disease activity index, clinical inspection, inflammatory pathology in the ileum and colon, epithelial barrier function and immunological parameters of inflammation. […] Consistent with the extensive T cells infiltration in different organs observed in CTLA-4 haploinsufficiency (Kuehn et al, 2014; Schubert et al, 2014; […] No lymphocytic infiltration or immunopathology were detected in organs, such as the spleens and kidneys (data not shown).

B16 tumor cells = test: anti-CTLA-4-responsive B16 melanoma model; type: in vivo, C57BL/6 mice
Experimental: For FIGS. 12A-12E, C57BL/6 mice were subcutaneously injected with B16 tumor cells and administered 100 μg anti-CTLA-4 mAb or isotype control intraperitoneally four times at 3-day intervals up to 16 days. 3-IAld was administered intragastrically every other day. Mice were evaluated for (FIG. 12A) tumor growth, (FIG. 12B) histology (periodic acid-Schiff staining), (FIG. 12C) immunohistochemistry for CD8+ and CD4+ tumor-infiltrating lymphocytes (TIL), (FIG. 12D) number of positive TIL per high-power field, HPF and (FIG. 12E) Cxcl9 and Perforin expression. (FIGS. 12F-12J) C57BL/6 mice were orthotopically injected with LLC cells and administered 200 μg anti-PD-1 mAb or isotype control intraperitoneally five times at 3-day intervals up to 18 days. 3-IAld was administered intragastrically every other day. Mice were evaluated for (FIG. 12F) % survival, (FIG. 12G) lung weight, (FIG. 12H) lung gross pathology, (FIGS. 12I, 12J) CD4+CD25+Foxp3+ cells. Photographs were taken with a high-resolution microscope, ×40 magnification (scale bars, 100 μm). Each in vivo experiment includes three mice per group (nine mice in each experiment). […]
(§1) The potential application of 3-IAld requires that its immunoregulatory activity would not impinge the tumor immunosurveillance. To this purpose, the effect of 3-IAld was assessed in the anti-CTLA-4-responsive B16 melanoma model (Renga et al, 2022).

LLC cells = test: Lewis lung carcinoma (LLC) model with anti-PD-1 antibody; type: in vivo, C57BL/6 mice
Experimental: For FIGS. 12A-12E, C57BL/6 mice were subcutaneously injected with B16 tumor cells and administered 100 μg anti-CTLA-4 mAb or isotype control intraperitoneally four times at 3-day intervals up to 16 days. 3-IAld was administered intragastrically every other day. Mice were evaluated for (FIG. 12A) tumor growth, (FIG. 12B) histology (periodic acid-Schiff staining), (FIG. 12C) immunohistochemistry for CD8+ and CD4+ tumor-infiltrating lymphocytes (TIL), (FIG. 12D) number of positive TIL per high-power field, HPF and (FIG. 12E) Cxcl9 and Perforin expression. (FIGS. 12F-12J) C57BL/6 mice were orthotopically injected with LLC cells and administered 200 μg anti-PD-1 mAb or isotype control intraperitoneally five times at 3-day intervals up to 18 days. 3-IAld was administered intragastrically every other day. Mice were evaluated for (FIG. 12F) % survival, (FIG. 12G) lung weight, (FIG. 12H) lung gross pathology, (FIGS. 12I, 12J) CD4+CD25+Foxp3+ cells. Photographs were taken with a high-resolution microscope, ×40 magnification (scale bars, 100 μm). Each in vivo experiment includes three mice per group (nine mice in each experiment). Data are represented as mean±SEM. One-way analysis of variance, Bonferroni post hoc test. *P<0.05, **P<0.01, ***P<0.001.
as §1

DSS-induced colitis = details: cited from earlier work
[5] = cited from earlier work
[6] = 3-IAld-Eudragit 18 mg/kg, DSS 1%

Structure (SMILES) | induction of luciferase activity (RLU, fold induction) versus 3-IAld (AhR [1]) | activation of AhR-dependent genes (AhR [2]) | DSS+anti-CTLA-4-induced colitis (overall) ([3]; 3-IAld) | loss of body weight ([3]; 3-IAld-Eudragit 18 mg/kg intragastrically every other day, DSS 1%) | disease activity index [3, 6] | inflammatory pathology (colon) [3, 6] | cytotoxic effects / pathology induced by CTLA-4 blockade (overall) ([4]; 3-IAld, chronic schedule) | CD3+ T cell (lymphocytic) infiltration ([4]; ileum, colon, lung and liver, anti-CD3 staining) | recruitment of CD4+ and CD8+ tumour-infiltrating lymphocytes (B16 tumor cells; 3-IAld with anti-CTLA-4 mAb) | development of antitumor immunity / tumor immunosurveillance (overall) (B16 tumor cells; B16 and LLC models) | therapeutic efficacy of anti-PD-1 antibody (LLC cells; 3-IAld with 200 μg anti-PD-1 mAb) | ability of anti-PD-1 antibody to increase survival (LLC cells; 3-IAld with anti-PD-1 mAb) | ability of anti-PD-1 antibody to reduce the recruitment of Foxp3+CD25+ Treg cells in the lung (LLC cells; 3-IAld with anti-PD-1 mAb) | ability of anti-PD-1 antibody to improve gross pathology (LLC cells; 3-IAld with anti-PD-1 mAb, lung) | ability of anti-PD-1 antibody to decrease tumour growth (LLC cells; 3-IAld with anti-PD-1 mAb, lung weight) | IL-22 production (DSS-induced colitis; intragastric administration, AhR-dependent manner) | therapeutic efficacy in a murine model of dextran-induced colitis (DSS-induced colitis; mouse, in vivo) | acidity (based on its pKa) [5] | solubility in water [5]
Cn1cc(C(=O)O)c2ccccc21 [1-methylindole-3-carboxylic acid, 1-Methyl-1H-indole-3-carboxylic acid] | more potent inducer of luciferase activity | activated AhR-dependent genes in a dose-dependent manner |  |  |  |  |  |  |  |  |  |  |  |  |  |  |  |  | 
O=Cc1c[nH]c2ccccc12 [3-IAld, 1H-indole-3-carbaldehyde] |  |  | protects | prevented | decreased | decreased | effective; also recorded: protects | significantly reduced; also recorded: reduces lymphocytic infiltration | did not affect | does not interfere | did not interfere | did not prevent | did not prevent | did not prevent | did not prevent | induced IL-22 production | therapeutic efficacy | very weakly acidic | slightly soluble

— patent US20250090498A1, “TREATMENT OF PRIMARY CTLA-4 CHECKPOINT RELATED IMMUNODEFICIENCIES” (ADIENNE PHARMA & BIOTECH SA, priority 2023, published 2025)
